Holding throughout (assay): inhibition of tumour cell growth, NCI panel, 48 h
The test system of assay [1] is ACHN.
The test system of assay [2] is EKVX.
Assay [3] relates to HCT-116.
The subject of assay [4] is SNB-75.
The test system of assay [5] is TK-10.
Assay [6] deals with HOP-62.
The subject of assay [7] is BT-549.
For assay [8], the system named is HT-29.
Assay [9] concerns UACC-62.
Assay [10] deals with NCI-H226.
The subject of assay [11] is RPMI-8226.
The test system of assay [12] is SK-MEL-2.
The subject of assay [13] is IGROV-1.
Assay [14] has as its system MCF7.
Assay [15] deals with M14.
In assay [16] the test system is OVCAR-5.
The test system of assay [17] is SK-MEL-28.
For assay [18], the system named is UACC-257.
Assay [19] concerns MDA-MB-231.
Assay [20] deals with T47D.

Structures are written as SMILES.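 Each compound was tested at five concentrations against cells in 96-well plates for 48 hours. The concentration for 50% growth inhibition is given as GI50.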 Active and inactive are the calls of the source. Cut-off read from the data, not from the text of the source: active = GI50 up to about 1.1 µM and inactive = higher.

For the molecule `N#C/C(=C\c1cc(Br)c(O)c(Br)c1)c1cccnc1`, the GI50 in assay [1] is 36.3 µM (inactive); in [2] it was 19.1 µM (inactive); in assay [3], > 100 µM (inactive); in assay [4] it was 75 µM (inactive); in [5], 27.4 µM (inactive); in assay [6], 32.8 µM (inactive). Further, the GI50 in assay [7] was 22.5 µM (inactive); in assay [8] it was 34.9 µM (inactive); in assay [9] it was 43.8 µM (inactive); in assay [10], 21.5 µM (inactive); in assay [11] it was 21.6 µM (inactive); in assay [12], 19.3 µM (inactive). Also, the GI50 in assay [13] was 52.8 µM (inactive); in assay [14], 33 µM (inactive); in assay [15] it was 26.1 µM (inactive); in assay [16], 41.6 µM (inactive); in assay [17], 27.6 µM (inactive); in assay [18], 23.6 µM (inactive).
As to `O=C(c1ccc(Cl)cc1)C(O)c1ccc(Cl)cc1` (stereo unspecified), the GI50 in [19] was > 100 µM (inactive); in assay [1], > 100 µM (inactive); in assay [2], 34.2 µM (inactive); in assay [3], > 100 µM (inactive); in assay [4], > 100 µM (inactive); in [5], 63.4 µM (inactive). Also, the GI50 is > 100 µM (inactive) in [6]; 53.8 µM (inactive) in assay [7]; > 100 µM (inactive) in [8]; 42 µM (inactive) in assay [9]; > 100 µM (inactive) in assay [10]; 60.4 µM (inactive) in assay [11]. For the same molecule, the GI50 is > 100 µM (inactive) in assay [12]; 85.3 µM (inactive) in [13]; 75.7 µM (inactive) in [14]; > 100 µM (inactive) in assay [15]; > 100 µM (inactive) in [16]; > 100 µM (inactive) in assay [17]. The GI50 in assay [18] was 52.8 µM (inactive).
`Cc1ccc2nc(-c3ccc(N)c(Br)c3)sc2c1`: the GI50 in assay [19] is 25.3 µM (inactive); in assay [1], 36.3 µM (inactive); in assay [2] it was 15.2 µM (inactive); in assay [3], 31.4 µM (inactive); in [6], 13.5 µM (inactive); in assay [20] it was 0.655 µM (active). For the same molecule, the GI50 in [7] is 14.9 µM (inactive); in assay [8], 40.7 µM (inactive); in [9], 23.8 µM (inactive); in assay [10] it was 17.5 µM (inactive); in [12] it was 27.9 µM (inactive); in assay [15] it was 26.7 µM (inactive). The GI50 in assay [16] is 47.3 µM (inactive); in [17] it was > 100 µM (inactive); in [18], 20 µM (inactive).
As for `CC(C)(C)OC(=O)NC(Cc1ccc(OCc2ccccc2)cn1)C(=O)O` (stereo unspecified), the GI50 in assay [19], in assay [1], in [2], in assay [3], in assay [5] and in [6] was > 100 µM (inactive) each time. Besides, the GI50 in assay [7], in assay [8], in assay [10], in assay [11], in assay [13] and in [14] was > 100 µM (inactive) each time. Further, the GI50 in assay [16], in assay [17] and in assay [18] was > 100 µM (inactive) in each case.
As to `CCC(O)(Cc1ccc(OC)cc1)c1ccc(OC)cc1` (stereo unspecified), the GI50 in assay [19], in assay [1], in assay [2], in [3], in [4] and in [5] was > 100 µM (inactive) each time. The GI50 in assay [6], in [7], in [8], in [9], in assay [10] and in assay [11] was > 100 µM (inactive) each time. The GI50 in assay [12], in assay [13], in assay [14], in assay [15], in assay [16] and in assay [18] was > 100 µM (inactive) in each case.
With `CC(=O)Oc1c(C)cc2c(c1C)C(C)CN2C(C)=O` (stereo unspecified), the GI50 in [19] was > 100 µM (inactive); in assay [1], > 100 µM (inactive); in assay [2], > 100 µM (inactive); in [3], > 100 µM (inactive); in assay [4], 94.2 µM (inactive); in assay [5], > 100 µM (inactive). The GI50 in assay [6], in assay [20], in assay [8], in [9], in [10] and in assay [11] was > 100 µM (inactive) throughout. Further, the GI50 in assay [12], in assay [13], in [14], in assay [15], in [16] and in assay [17] was > 100 µM (inactive) each time. Also, in [18], the GI50 is > 100 µM (inactive).
For the molecule `CN(C)CCCn1c(Cn2nc3ccccc3n2)nc2cc(C(F)(F)F)ccc21`, the GI50 in [19] is 28.9 µM (inactive); in assay [1], 41.5 µM (inactive); in assay [2], 28.3 µM (inactive); in [3], 36 µM (inactive); in [5] it was 24 µM (inactive); in [6] it was 64.4 µM (inactive). Moreover, the GI50 in assay [20] was 15.2 µM (inactive); in [7], 16.8 µM (inactive); in [8], 19.7 µM (inactive); in [9], 19.2 µM (inactive); in assay [10] it was 56 µM (inactive); in assay [12], 19.4 µM (inactive). The GI50 in assay [13] was 29 µM (inactive); in assay [14], 22 µM (inactive); in assay [15], 15.3 µM (inactive); in assay [16], > 100 µM (inactive); in assay [17], 17.4 µM (inactive); in assay [18], 16.8 µM (inactive).
Regarding `Cn1ccc(C(=O)N2CCSC2=S)c(OCc2ccccc2)c1=O`, the GI50 is > 100 µM (inactive) in assay [19]; > 100 µM (inactive) in [1]; > 100 µM (inactive) in assay [3]; 70.1 µM (inactive) in assay [4]; > 100 µM (inactive) in assay [5]; 66.7 µM (inactive) in assay [20]. Besides, the GI50 in assay [7], in [8], in assay [9], in assay [10], in [11] and in assay [12] was > 100 µM (inactive) each time. Moreover, the GI50 in assay [17] and in assay [18] was > 100 µM (inactive) each time.
As for `CCOC(=O)c1sc2nc(SC)nc3c2c1NCN3C1CC1`, the GI50 in [19] was > 100 µM (inactive); in assay [1], > 100 µM (inactive); in assay [3] it was > 100 µM (inactive); in assay [4] it was 38.8 µM (inactive); in assay [5] it was > 100 µM (inactive); in assay [6], > 100 µM (inactive). Moreover, the GI50 in assay [20] is 48.6 µM (inactive); in assay [7] it was > 100 µM (inactive); in [8], > 100 µM (inactive); in [9], > 100 µM (inactive); in assay [10] it was > 100 µM (inactive); in assay [11], > 100 µM (inactive). In addition, the GI50 in assay [12], in assay [13], in [15], in [16], in assay [17] and in [18] was > 100 µM (inactive) throughout.
On to `c1ccc2c(c1)c1c(n2CCOCCN2CCCCC2)CCCC1`, for which the GI50 is 11.8 µM (inactive) in [19]; 14.2 µM (inactive) in assay [1]; 16.9 µM (inactive) in assay [2]; 12.5 µM (inactive) in assay [3]; 11.6 µM (inactive) in assay [4]; 14.3 µM (inactive) in assay [5]. Moreover, the GI50 was 15.1 µM (inactive) in assay [6]; 13.4 µM (inactive) in [20]; 11.6 µM (inactive) in [8]; 15 µM (inactive) in assay [9]; 21.7 µM (inactive) in assay [10]; 9.29 µM (inactive) in [11]. The GI50 was 8.77 µM (inactive) in assay [12]; 13.9 µM (inactive) in assay [13]; 13.7 µM (inactive) in [14]; 12.8 µM (inactive) in assay [15]; 12.3 µM (inactive) in assay [16]; 24.6 µM (inactive) in assay [17]. Besides, the GI50 in [18] was > 10 µM (inactive).
For the molecule `O=C(O)C1CCCCC1C(=O)Nn1cnnc1` (stereo unspecified), the GI50 in assay [19], in [1], in [2], in assay [3], in assay [4] and in assay [5] was > 100 µM (inactive) each time. For the same molecule, the GI50 in assay [6], in [7], in [8], in assay [9], in [11] and in assay [12] was > 100 µM (inactive) throughout. Besides, the GI50 in assay [13], in assay [14], in assay [15], in [16], in assay [17] and in assay [18] was > 100 µM (inactive) in each case.

Values taken from ChEMBL document CHEMBL1201862, “PubChem BioAssay data set” (2004).
